The target in data set [1] is T1, small-conductance Ca2+-activated K+ channels (SK channels, subtype 3), hSK3 (Homo sapiens, UniProt Q9UGI6).
T1 construct: expressed in transfected cells; host or cells: HEK293
The data set can be described thus: Whole-cell patch-clamp recording of ionic current through hSK3 channels expressed in HEK293 cells. The conditions noted are these: HEK293 cells expressing hSK3 channels. The class given is cell-based. Here is the method: The compounds of the invention may be tested for their usefulness as potassium channel modulating agents e.g. such as described in WO 2006/100212.
The ionic current through small-conductance Ca^2+-activated K^+ channels (SK channels, subtype 3) is recorded using the whole-cell configuration of the patch-clamp technique in a classic patch-clamp set-up using HEK293 tissue culture cells expressing hSK3 channels as described in e.g. WO 2006/100212
The SC100 value determined is defined as the Stimulating Concentration required for increasing the baseline current by 100%. The SC100 value determined for Compound 4.1 of the invention was 0.022±0.013 μM, which is an indication of its SK3 activating properties.

The values that follow come from patent US8618099B2, “Pyrazolyl-pyrimidine derivatives and their use as potassium channel modulators” (Ataxion, Inc., priority 2008, dated 2013).

Take `Cc1cc(C)n(-c2nc(Nc3ccc(Cl)cc3)cc(N3CCOCC3)n2)n1` [Compound 4.1, (4-Chloro-phenyl)-[2-(3,5-dimethyl-pyrazol-1-yl)-6-morpholin-4-yl-pyrimidin-4-yl]-amine]: the melting point – broadly, the temperature of the solid-liquid transition – was in the range of 186 to 187 °C. In addition, the “SC100 (Stimulating Concentration required for increasing the baseline current by 100%)” value in data set [1] is 0.022 ± 0.013 µM.
